For the data set, the target named is ATP-dependent translocase ABCB1 (Homo sapiens, UniProt P08183). Put plainly: TP_TRANSPORTER: transepithelial transport of BMS387032 at a concentration of 200uM in Caco-2 cells. Type of data set: functional, cell-based. Particulars: caco-2, 200 µM. Background: Passage across Caco-2 layers is used to estimate intestinal permeability.

The structures appear in SMILES notation.

This passage reports Activity results from ChEMBL document CHEMBL2074409, “P-glycoprotein plays a role in the oral absorption of BMS-387032, a potent cyclin-dependent kinase 2 inhibitor, in rats” (Cancer Chemother Pharmacol, 2004).

ATP-dependent translocase ABCB1, sequence (P08183 whole entry): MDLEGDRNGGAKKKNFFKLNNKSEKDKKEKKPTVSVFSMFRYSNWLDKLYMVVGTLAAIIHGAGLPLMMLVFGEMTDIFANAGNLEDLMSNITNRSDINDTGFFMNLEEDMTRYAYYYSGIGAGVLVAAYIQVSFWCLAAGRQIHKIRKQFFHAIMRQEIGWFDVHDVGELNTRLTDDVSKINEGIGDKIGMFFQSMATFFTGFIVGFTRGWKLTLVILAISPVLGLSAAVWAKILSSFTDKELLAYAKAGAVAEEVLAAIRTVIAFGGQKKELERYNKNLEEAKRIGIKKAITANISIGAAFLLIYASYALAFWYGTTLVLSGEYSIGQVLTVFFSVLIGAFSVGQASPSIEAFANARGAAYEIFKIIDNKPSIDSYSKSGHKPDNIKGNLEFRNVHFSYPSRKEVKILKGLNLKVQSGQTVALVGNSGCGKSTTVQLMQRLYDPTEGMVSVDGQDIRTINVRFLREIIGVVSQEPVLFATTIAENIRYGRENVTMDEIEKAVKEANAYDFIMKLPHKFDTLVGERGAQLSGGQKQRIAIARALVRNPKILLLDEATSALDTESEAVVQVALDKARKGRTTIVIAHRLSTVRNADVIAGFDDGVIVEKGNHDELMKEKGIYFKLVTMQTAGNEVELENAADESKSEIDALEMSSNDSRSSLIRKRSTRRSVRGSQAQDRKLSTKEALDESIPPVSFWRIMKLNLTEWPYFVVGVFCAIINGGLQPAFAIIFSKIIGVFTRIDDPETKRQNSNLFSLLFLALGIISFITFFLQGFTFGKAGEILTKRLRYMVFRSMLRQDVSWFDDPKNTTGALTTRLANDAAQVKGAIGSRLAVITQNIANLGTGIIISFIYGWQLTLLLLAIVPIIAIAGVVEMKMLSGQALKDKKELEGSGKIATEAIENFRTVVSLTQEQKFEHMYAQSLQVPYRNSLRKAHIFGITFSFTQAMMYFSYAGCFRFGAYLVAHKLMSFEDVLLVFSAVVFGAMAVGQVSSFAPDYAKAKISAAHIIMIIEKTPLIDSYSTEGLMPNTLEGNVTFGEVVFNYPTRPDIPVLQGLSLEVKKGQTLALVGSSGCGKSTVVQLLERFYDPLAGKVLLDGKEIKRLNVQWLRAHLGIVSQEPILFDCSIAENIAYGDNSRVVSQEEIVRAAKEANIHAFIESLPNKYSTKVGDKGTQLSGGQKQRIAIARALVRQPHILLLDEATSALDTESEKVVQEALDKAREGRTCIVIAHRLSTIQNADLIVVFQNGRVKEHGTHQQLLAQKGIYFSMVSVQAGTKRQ

As for `CC(C)(C)c1cnc(CSc2cnc(NC(=O)C3CCNCC3)s2)o1` [BMS-387032], the Activity result was “substrate [+]”.
